# Assays:
# HCT-116 cell line = test: Inhibition of cell growth, MTT tetrazolium salt assay; assay type: cell-based; conditions: for HCT-116 % Inhibition at 0.1 μM: HCT-116, at 0.1 μM; for HCT-116 % Inhibition at 0.25 μM: HCT-116, at 0.25 μM
# In short: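 Growth inhibition was read as MTT-formazan absorbance at 540 nm, after 4 h with 0.2 mg/mL MTT. Before that, HCT-116 cells had been exposed 3–5 days at 37 °C to compounds in 0.5% (v/v) DMSO, added 4 h after plating. 50% and 90% inhibitory concentrations were taken from semi-log concentration–inhibition plots versus vehicle controls.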
# human CDK4/cyclin D3 = molecular target: T1, human CDK4/cyclin D3 (Homo sapiens, UniProt P11802); test: Inhibition of CDK4/cyclin D retinoblastoma kinase activity (Ki; % inhibition); assay type: biochemical; conditions: at 0.03 μM
# T1 construct: made in house; host or cells: insect cells co-infected with baculovirus vectors
# In short: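 Insect-cell-expressed CDK4 with truncated cyclin D3 (1-264), 5 nM, phosphorylating His-tagged Rb fragment (386-928) with 25 μM [32/33P]ATP at pH 7.4, 30 °C, 20 min (60 min for tight binders). Filter capture, phosphorimager read; % inhibition at 30 nM compound, Ki from competitive or tight-binding fits.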
# CDK2/cyclin A = molecular target: T2, CDK2/cyclin A (Homo sapiens, UniProt P24941); test: Inhibition of CDK2/cyclin A retinoblastoma kinase activity (Ki; % inhibition); assay type: biochemical; conditions: at 0.03 μM
# T2 construct: made in house; host or cells: CDK2: insect cells (baculovirus); cyclin A: E. coli
# In short: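 Radiometric filter assay of CDK2/proteolyzed cyclin A (baculovirus-expressed human CDK2, 10 or 19 nM) phosphorylating an Rb fragment with 25 μM [³²P/³³P]ATP in pH 7.4 HEPES, 2% DMSO, at 30 °C for 60 or 75 min under initial-rate conditions. Library compounds screened at 30 nM for % inhibition; apparent Ki from concentration series fit to competitive or tight-binding inhibition equations.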
# T1 sequence (P11802 whole entry): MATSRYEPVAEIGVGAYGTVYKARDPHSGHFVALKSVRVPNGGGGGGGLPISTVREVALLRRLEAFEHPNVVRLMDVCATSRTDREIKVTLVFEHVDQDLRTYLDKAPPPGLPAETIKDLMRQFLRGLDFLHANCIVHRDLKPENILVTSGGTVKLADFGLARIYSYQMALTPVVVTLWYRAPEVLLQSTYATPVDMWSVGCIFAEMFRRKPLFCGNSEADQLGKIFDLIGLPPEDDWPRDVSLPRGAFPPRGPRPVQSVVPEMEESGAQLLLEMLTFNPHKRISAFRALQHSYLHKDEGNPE
# T1 sequence (P30281 1-264 partner limits assumed): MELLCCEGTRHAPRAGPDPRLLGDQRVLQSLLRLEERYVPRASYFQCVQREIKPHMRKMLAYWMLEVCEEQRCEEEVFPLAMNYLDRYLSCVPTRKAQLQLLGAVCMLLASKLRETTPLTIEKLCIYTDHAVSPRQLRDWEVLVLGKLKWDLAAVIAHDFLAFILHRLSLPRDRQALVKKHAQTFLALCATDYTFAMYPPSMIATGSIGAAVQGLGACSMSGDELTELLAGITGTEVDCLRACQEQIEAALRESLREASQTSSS
SMILES,HCT-116 % Inhibition at 0.1 μM (HCT-116 cell line) [%],HCT-116 % Inhibition at 0.25 μM (HCT-116 cell line) [%],CDK4 % Inhibition at 0.03 μM (human CDK4/cyclin D3) [%],CDK2 % Inhibition at 0.03 μM (CDK2/cyclin A) [%],HCT-116 % Inhibition at 0.1 μM (HCT-116 cell line; 0.1 µM) [%],HCT-116 % Inhibition at 0.25 μM (HCT-116 cell line; 0.25 µM) [%]
CC(O)c1ccc(NC(=O)c2ccc(Nc3nc(N)c(C(=O)c4c(F)cccc4F)s3)cc2)cc1 (centres unmarked) [Example G94],38,80,4,10,–,–
Nc1nc(Nc2ccc(C(=O)NC3CCc4ccccc43)cc2)sc1C(=O)c1c(F)cccc1F (centres unmarked) [Example G95],32,63,18,12,–,–
CC(C)NC(=O)c1ccc(Nc2nc(N)c(C(=O)c3c(F)cccc3F)s2)cc1 [Example G96],20,56,5,−10,–,–
COC(CNC(=O)c1ccc(Nc2nc(N)c(C(=O)c3c(F)cccc3F)s2)cc1)OC [Example G97],28,56,11,2,–,–
COCCCNC(=O)c1ccc(Nc2nc(N)c(C(=O)c3c(F)cccc3F)s2)cc1 [Example G98],22,60,11,−24,–,–
CN(C)CCCCCCNC(=O)c1ccc(Nc2nc(N)c(C(=O)c3c(F)cccc3F)s2)cc1 [Example G99],24,62,23,−16,–,–
Nc1nc(Nc2ccc(C(=O)Nc3ccc4nc[nH]c4c3)cc2)sc1C(=O)c1c(F)cccc1F [Example G100],27,89,22,13,–,–
Nc1nc(Nc2ccc(C(=O)Nc3ccc4c(c3)S(=O)(=O)NC4=O)cc2)sc1C(=O)c1c(F)cccc1F [Example G101],10,46,19,11,–,–
CC(C)C(CO)NC(=O)c1ccc(Nc2nc(N)c(C(=O)c3c(F)cccc3F)s2)cc1 (centres unmarked) [Example G102],18,55,18,−3,–,–
COCC(C)NC(=O)c1ccc(Nc2nc(N)c(C(=O)c3c(F)cccc3F)s2)cc1 (centres unmarked) [Example G103],21,59,5,−2,–,–
Nc1nc(Nc2ccc(C(=O)NCC(O)c3ccccc3)cc2)sc1C(=O)c1c(F)cccc1F (centres unmarked) [Example G104],38,91,14,8,–,–
Nc1ccc(CCNC(=O)c2ccc(Nc3nc(N)c(C(=O)c4c(F)cccc4F)s3)cc2)cc1 [Example G105],24,67,9,3,–,–
COC(=O)c1cccc(NC(=O)c2ccc(Nc3nc(N)c(C(=O)c4c(F)cccc4F)s3)cc2)c1 [Example G106],0,61,7,7,–,–
Cc1cc(NC(=O)c2ccc(Nc3nc(N)c(C(=O)c4c(F)cccc4F)s3)cc2)ccc1C(C)C [Example G107],5,59,12,−5,–,–
CSCCC(O)NC(=O)c1ccc(Nc2nc(N)c(C(=O)c3c(F)cccc3F)s2)cc1 (centres unmarked) [Example G108],0,60,12,−5,–,–
CC(CO)NC(=O)c1ccc(Nc2nc(N)c(C(=O)c3c(F)cccc3F)s2)cc1 (centres unmarked) [Example G109],–,–,22,6,0,54
CC(O)CNC(=O)c1ccc(Nc2nc(N)c(C(=O)c3c(F)cccc3F)s2)cc1 (centres unmarked) [Example G110],0,52,17,15,–,–

# — US6720346B2, “Thiazole benzamide derivatives and pharmaceutical compositions for inhibiting cell proliferation” (Agouron Pharmaceuticals, Inc., priority 2001, dated 2004)
